# Assay results published in ChEMBL document CHEMBL5247681, “Covalent S-Adenosylhomocysteine-Based DNA Methyltransferase 2 Inhibitors with a New Type of Aryl Warhead” (ACS Med Chem Lett, 2023).
# What was measured:
# Assay type in all cases: physicochemical
# [1] = Stability of compound in TRIS buffer at pH 8 assessed as compound conversion in presence of DTT measured for 2 to 90 mins by LC-MS analysis; conditions: time 2-90 min
# [2] = Stability of compound in TRIS buffer at pH 8 assessed as compound conversion in presence of DTT measured after 90 mins by LC-MS analysis; conditions: TRIS buffer with DTT, read-out: Drug metabolism
# [3] = Stability of compound in TRIS buffer at pH 8 assessed as compound conversion in presence of DTT measured after 15 mins by LC-MS analysis; conditions: TRIS buffer with DTT, read-out: Drug metabolism
Structure (SMILES),Stability [1],degraded at 1.5 h [2],degraded at 0.25 h [3]
Nc1ncnc2c1ncn2[C@@H]1O[C@H](CN(CC[C@H](N)C(=O)O)S(=O)(=O)c2ccc(Br)c([N+](=O)[O-])c2)[C@@H](O)[C@H]1O,Unstable,100%,60%
Nc1ncnc2c1ncn2[C@@H]1O[C@H](CN(CC[C@H](N)C(=O)O)S(=O)(=O)c2ccc(F)c([N+](=O)[O-])c2)[C@@H](O)[C@H]1O,Unstable,–,–
Nc1ncnc2c1ncn2[C@@H]1O[C@H](CN(CC[C@H](N)C(=O)O)S(=O)(=O)c2ccc(Cl)c([N+](=O)[O-])c2)[C@@H](O)[C@H]1O,Unstable,100%,60%
